In patent US20230031406A1, “COMPOUNDS AND COMPOSITIONS FOR TREATING CONDITIONS ASSOCIATED WITH NLRP ACTIVITY” (Novartis AG, priority 2018, published 2023):
Read-outs that look alike come from different tables or passages of the source. Each block holds one compound with its values, some of them ahead of it.

System: PMA-differentiated THP-1 cells
Assay: IL-1β production in PMA-differentiated THP-1 cells stimulated with gramicidin (hTHP-1 assay containing 2% fetal bovine serum; Procedures 1 and 2)
Assay type: cell-based, human
Settings: 2% fetal bovine serum
Protocol: The following protocol is suitable for testing the activity of the compounds disclosed herein. Procedure 1: IL-1β Production in PMA-Differentiated THP-1 Cells Stimulated with Gramicidin.
THP-1 cells were purchased from the American Type Culture Collection and sub-cultured according to instructions from the supplier. Cells were cultured in complete RPMI 1640 (containing 10% heat inactivated FBS, penicillin (100 units/ml) and streptomycin (100 μg/ml)), and maintained in log phase prior to experimental setup. Prior to the experiment, compounds were dissolved in dimethyl sulfoxide (DMSO) to generate a 30 mM stock. The compound stock was first pre-diluted in DMSO to 3, 0.34, 0.042 and 0.0083 mM intermediate concentrations and subsequently spotted using Echo550 liquid handler into an empty 384-well assay plate to achieve desired final concentration (e.g. 100, 33, 11, 3.7, 1.2, 0.41, 0.14, 0.046, 0.015, 0.0051, 0.0017 μM). DMSO was backfilled in the plate to achieve a final DMSO assay concentration of 0.37%. The plate was then sealed and stored at room temperature until required.
THP-1 cells were treated with PMA (Phorbol 12-myristate 13-acetate) (20 ng/ml) for 16-18 hours. On the day of the experiment the media was removed and adherent cells were detached with trypsin for 5 minutes. Cells were then harvested, washed with complete RPMI 1640, spun down, and resuspended in RPMI 1640 (containing 2% heat inactivated FBS, penicillin (100 units/ml) and streptomycin (100 μg/ml). The cells were plated in the 384-well assay plate containing the spotted compounds at a density of 50,000 cells/well (final assay volume 50 μl). Cells were incubated with compounds for 1 hour and then stimulated with gramicidin (5 μM) (Enzo) for 2 hours. Plates were then centrifuged at 340 g for 5 min. Cell free supernatant (40 μL) was collected using a 96—CHannel PlateMaster (Gilson) and the production of IL-1β was evaluated by HTRF (cisbio). The plates were incubated for 18 h at 4° C. and read using the preset HTRF program (donor emission at 620 nm, acceptor emission at 668 nm) of the SpectraMax i3x spectrophotometer (Molecular Devices, software SoftMax 6). A vehicle only control and a dose titration of CRID3 (100-0.0017 μM) were run concurrently with each experiment.
Procedure 2: IL-1β Production in PMA-Differentiated THP-1 Cells Stimulated with Gramicidin.
THP-1 cells were purchased from the American Type Culture Collection and sub-cultured according to instructions from the supplier. Prior to experiments, cells were cultured in complete RPMI 1640 (containing 10% heat inactivated FBS, penicillin (100 units/ml) and streptomycin (100 μg/ml)), and maintained in log phase prior to experimental setup. Prior to the experiment THP-1 were treated with PMA (Phorbol 12-myristate 13-acetate) (20 ng/ml) for 16-18 hours. Compounds were dissolved in dimethyl sulfoxide (DMSO) to generate a 30mM stock. On the day of the experiment the media was removed and adherent cells were detached with trypsin for 5 minutes. Cells were then harvested, washed with complete RPMI 1640, spun down, resuspended in RPMI 1640 (containing 2% heat inactivated FBS, penicillin (100 units/ml) and streptomycin (100 μg/ml). The cells were plated in a 384-well plate at a density of 50,000 cells/well (final assay volume […]). Compounds were first dissolved in assay medium to obtain a 5× top concentration of 500 μM. 10 step dilutions (1:3) were then undertaken in assay medium containing 1.67% DMSO. 5× compound solutions were added to the culture medium to achieve desired final concentration (e.g. 100, 33, 11, 3.7, 1.2, 0.41, 0.14, 0.046, 0.015, 0.0051, 0.0017 μM). Final DMSO concentration was at 0.37%. Cells were incubated with compounds for 1 hour and then stimulated with gramicidin (5 μM) (Enzo) for 2 hours. Plates were then centrifuged at 340 g for 5 min. Cell free supernatant (40 μL) was collected using a 96—CHannel PlateMaster (Gilson) and the production of IL-1β was evaluated by HTRF (cisbio). […]

[1] = Table B2, class symbols, read-out: hTHP-1 IC50
[2] = Homo sapiens, THP-1, Table B2, class symbols, read-out: hTHP-1 IC50
[3] = Table B1, class symbols, read-out: Average IC50 of compounds in hTHP-1 assay: hTHP-1 IC50
[4] = Homo sapiens, THP-1, Table B2, numeric bounds, read-out: hTHP-1 IC50
[5] = Table B3, hTHP-1 assay, class symbols, read-out: IC50

SMILES: N[S@@](=O)(=NC(=O)Nc1c2c(nc(C3CC3)c1C1CC1)CCC2)c1ccn(C(F)F)n1 [Compound 728b]
IC50 [2]: 0.2 to 1 µM

SMILES: Cc1sc(S(N)(=O)=NC(=O)Nc2c3c(nc4c2CCC4)CCC3)cc1C(C)(C)O (single isomer, unassigned) [Compound 107a, (R) or (S)-N′-((1,2,3,5,6,7-hexahydrodicyclo-penta[b,e]pyridin-8-yl)carbamoyl)-4-(2-hydroxypropan-2-yl)-5-methylthiophene-2-sulfonimidamide]
IC50 [3]: 0.2 to 1 µM

SMILES: Cc1c(C2CC2)nc(C2CC2)c(C)c1NC(=O)N=S(N)(=O)c1cc(C(C)(C)O)cs1 (single isomer, unassigned) [Compound 612a, (S) or (R)-N′-((2,6-dicyclopropyl-3,5-dimethylpyridin-4-yl)carbamoyl)-4-(2-hydroxypropan-2-yl)thiophene-2-sulfonimidamide]
IC50 [4]: > 30 µM

SMILES: Cc1nc2c(c(NC(=O)N=S(N)(=O)c3cc(C(C)(C)O)cs3)c1C(C)C)CCC2 (single isomer, unassigned) [Compound 622b, (R) or (S)-4-(2-Hydroxypropan-2-yl)-N′-((3-isopropyl-2-methyl-6,7-dihydro-5H-cyclopenta[b]pyridin-4-yl)carbamoyl) thiophene-2-sulfonimidamide]
IC50 [2]: 5 to 30 µM

SMILES: CC(C)(O)c1ccc(S(N)(=O)=NC(=O)Nc2c3c(nc4c2CCC4(C)C)CCC3)cn1 (single isomer, unassigned) [Compound 673b, (S) or (R)-N′-((3,3-dimethyl-1,2,3,5,6,7-hexahydrodicyclopenta [b,e]pyridin-8-yl)carbamoyl)-6-(2-hydroxypropan-2-yl)pyridine-3-sulfonimidamide]
IC50 [4]: > 30 µM

SMILES: CC(C)(O)c1csc(S(N)(=O)=NC(=O)Nc2c3c(nc(C(F)(F)F)c2C2CC2)CCC3)c1 (single isomer, unassigned) [Example 645, (S) or (R)-N′-((3-cyclopropyl-2-(trifluoromethyl)-6,7-dihydro-5H-cyclopenta[b]pyridin-4-yl)carbamoyl)-4-(2-hydroxypropan-2-yl) thiophene-2-sulfonimidamide]
IC50 [5]: 5 to 30 µM

SMILES: CCn1cc(F)c(S(N)(=O)=NC(=O)Nc2c3c(nc4c2CCC42CC2)CCC3)n1 (stereo not drawn) [Example 628, 1-Ethyl-4-fluoro-N′-((1′,5′,6′,7′-tetrahydro-2′H-spiro[cyclopropane-1,3′-dicyclopenta[b,e]pyridin]-8′-yl)carbamoyl)-1H-pyrazole-3-sulfonimidamide]
IC50 (Homo sapiens, THP-1, Table B3, hTHP-1 assay, class symbols, read-out: IC50): 0.04 to 0.2 µM

More lines, now with the values ahead:

IC50 [1]: 0.2 to 1 µM
SMILES: Cc1c(C(F)(F)F)nc2c(c1NC(=O)N=S(N)(=O)c1cnc(C(C)(O)CO)s1)CCC2 (stereo not drawn) [Compound 605, 2-(1,2-Dihydroxypropan-2-yl)-N′-((3-methyl-2-(trifluoromethyl)-6,7-dihydro-5H-cyclopenta[b]pyridin-4-yl)cabamoyl)thiazole-5-sulfonimidamide]

IC50 [3]: 0.2 to 1 µM
SMILES: CC(C)c1ncc(F)c(C(C)C)c1NC(=O)N=S(N)(=O)c1ncc(C(C)(C)O)s1 [Compound 165a, (R)- and (S)-N′-((5-fluoro-2,4-diisopropylpyridin-3-yl)carbamoyl)-5-(2-hydroxypropan-2-yl)thiazole-2-sulfonimidamide]

IC50 [1]: 5 to 30 µM
SMILES: CC1(C)CCc2c1nc1c(c2NC(=O)N=S(N)(=O)c2cnc(C(C)(O)CO)s2)CCC1 (single isomer, unassigned) [Compound 201f, (R, S) and (S, S) or (S, R) and (R, R)-2-(1.2-Dihydroxvpropan-2-yl)-N′-((3,3-dimethyl-1,2,3.5.6.7-hexahydrodicyclopenta [b,e]pvridin-8-yl)carbamoyl)thiazole-5-sulfonimidamide]

IC50 [5]: 0.04 to 0.2 µM
SMILES: CC1(C)CCc2c1nc1c(c2NC(=O)N=S(N)(=O)c2nn(C(F)F)cc2F)CCC1 (single isomer, unassigned) [Example 721, (R) or (S)-1-(difluoromethyl)-N′-((3,3-dimethyl-1,2,3,5,6,7-hexahydrodicyclopenta[b,e]pyridin-8-yl)carbamoyl)-4-fluoro-1H-pyrazole-3-sulfonimidamide]

IC50 (Homo sapiens, THP-1, Table B1, class symbols, read-out: Average IC50 of compounds in hTHP-1 assay: hTHP-1 IC50): 5 to 30 µM
SMILES: CC(C)(O)c1csc(S(N)(=O)=NC(=O)Nc2cc(C3CC3)nc3c2CCC3)c1 (stereo not drawn) [Compound 176, N′-((2-cyclopropyl-6,7-dihydro-5H-cyclopenta[b]pyridin-4-yl)carbamoyl)-4-(2-hydroxypropan-2-yl)thiophene-2-sulfonimidamide]

IC50 [5]: 0.2 to 1 µM
SMILES: CCn1ccc(S(N)(=O)=NC(=O)Nc2c3c(nc4c2CCC42CC2)CCC3)n1 (single isomer, unassigned) [Example 687, (R) or (S)-1-Ethyl-N′-((1′,5′,6′,7′-tetrahydro-2′H-spiro[cyclopropane-1,3′-dicyclopenta[b,e]pyridin]-8′-yl)carbamoyl)-1H-pyrazole-3-sulfonimidamide]

IC50 [2]: 0.04 to 0.2 µM
SMILES: Cc1c(C(C)C)nc2c(c1NC(=O)N=S(N)(=O)c1sc(C(C)(C)O)cc1F)CCC2 (stereo not drawn) [Compound 645, 3 -Fluoro-5-(2-hydroxypropan-2-yl)-N′-((2-isopropyl-3-methyl-6,7-dihydro-5H-cyclopenta[b]pyridin-4-yl)carbamoyl)thiophene-2-sulfonimidamide]

IC50 [3]: 5 to 30 µM
SMILES: CC(C)(O)c1nc(CO)c(S(N)(=O)=NC(=O)Nc2c3c(nc4c2CCC4(C)C)CCC3)s1 (single isomer, unassigned) [Compound 121b, (S) or (R)-N′-((3,3-dimethyl-1,2,3,5,6,7-hexahydro-dicyclopenta[b,e]pyridin-8-yl)carbamoyl)-4-(hydroxymethyl)-2-(2-hydroxypropan-2-yl)thiazole-5-sulfonimidamide]

IC50 [1]: 5 to 30 µM
SMILES: CC1(C)CCc2c1nc1c(c2NC(=O)N=S(N)(=O)c2cnc(C(C)(O)CO)s2)CCC1 (single isomer, unassigned) [Compound 201c, (S, S) or (R, S) or (S, R) or (R. R)-2-(1,2-Dihydroxypropan-2-yl)-N′-((3,3-dimethyl-1,2,3,5,6,7-hexahydrodicyclopenta [b,e]pvridin-8-yl)carbamoyl) thiazole-5-sulfonimidamide]

IC50 [2]: 5 to 30 µM
SMILES: Cc1cc(C(C)(C)O)sc1S(N)(=O)=NC(=O)Nc1c2c(nc3c1CCC3)CCC2 (single isomer, unassigned) [Compound 695b, (R) or (S)-N′-((1,2,3,5,6,7-hexahydrodicyclopenta [b,e]pyridin-8-yl)carbamoyl)-5-(2-hydroxypropan-2-yl)-3-methylthiophene-2-sulfonimidamide]

IC50 (Homo sapiens, THP-1, Table B1, numeric bounds, read-out: Average IC50 of compounds in hTHP-1 assay: hTHP-1 IC50): > 30 µM
SMILES: CN(C)Cc1ccc(S(N)(=O)=NC(=O)Nc2c3c(nc4c2CCC4(C)C)CCC3)cc1 (single isomer, unassigned) [Compound 125a, (S) or (R)-N′-((3,3-dimethyl-1,2,3,5,6,7-hexahydro-dicyclopenta[b,e]pyridin-8-yl)carbamoyl)-4-((dimethylamino)meth-yl)benzene-sulfonimidamide]
